One data set relates to J.Lat10.6 T-cell line. As to the kind of experiment: Dose dependent toxicity in the J.Lat model. It counts as cell-based. The settings on record: dosed as high as 40 μM.
The subject of data set [1] is HIV-1 gene expression in J.Lat10.6 latently infected T-cell line. The data set can be described thus: cells. It counts as cell-based. On the procedure:
The J.Lat10.6 latently infected T-cell line was treated with 4 compounds of the present invention, DP#6 (Compound 41), DP#14 (Compound 7), DP#18 (Compound 65), and DP#19 (Compound 73) and reactivated for 48 hrs. HIV-1 reactivation was measured by flowcytometry for GFP expression. Error bars represent standard deviation of n=3 experiments.
FIG. 45. […] The J.Lat10.6 model of HIV-1 latency was treated with JQ1 (+) and DP#14 (Compound 7) alone at 10 μM and in combination, and the HIV-1 gene expression measured 48 hrs post treatment. Error bars represent standard deviation of n=3 experiments. OPTI represents media alone, without DP#14.
FIG. 47. […] The J.Lat10.6 model of HIV-1 latency was treated with PFI-1 and DP#14 alone at 10 μM and in combination, and the HIV-1 gene expression measured 48 hrs post treatment. Error bars represent standard deviation of n=3 experiments. OPTI represents media alone, without DP#14.
Compounds were also evaluated in a dose ranging titration with HIV latently infected cell lines (J.Lat 6.3 and 10.6). The specificity of the selected compounds in these cell line models, were measured by inserting a CMV-DS.Red reporter into these cells to co-ordinately measure HIV specific LTR-Green fluorescent protein and non-specific DS.Red expression during FACS analysis.
The J.Lat model of HIV-1 latency is a well-established model used widely and is described in detail in the following paper:
HIV reproducibly establishes a latent infection after acute infection of T cells in vitro, Eric Verdin et al, The EMBO Journal Vol. 22 No. 8 pp 1868-1877, 2003

For data set [2], the system named is latent HIV in resting memory CD4+ T cells isolated by leukapheresis from HIV+ donors on antiretroviral therapy. Type of data set: cell-based, HIV-1. Particulars: 72 hrs. The text has this: FIG. 41a. […] Resting memory CD4+ T cells isolated by leukapheresis from HIV+ donors on antiretroviral therapy were reactivated for 72 hrs using known LRAs including vorinostat (Vor) also known as suberanilohydroxamic acid, another hydroxamic acid panobinostat (Pan), and the depsipeptide Romidepsin (Rom) that are all HDACi, together with JQ1 (+) which is a thienotriazolodiazepine known to inhibit the BET family of bromodomain proteins including BRD2, BRD3, and BRD4, and compared with compounds according to the present invention DP#6 (Compound 41), DP#14 (Compound 7), and DP#16 (Compound 64).
FIG. 41c. […] Resting memory CD4+ T cells isolated by leukapheresis from HIV+ donors on antiretroviral therapy were reactivated for 72 hrs using known (vorinostat, Vor; panobinostat, Pan; romidepsin, Rom; and JQ1 (+)) and compounds according to the present invention (DP#6 (Compound 41), DP#14 (Compound 7), and DP#16 (Compound 64)).
FIG. 42c. […] Resting memory CD4+ T cells isolated by leukapheresis from HIV+ donors on antiretroviral therapy were reactivated for 72 hrs using known (JQ1 (+)) and compounds according to the present invention (DP#14 (Compound 7)) alone and in combination, and HIV-1 RNA detected through qPCR.
Total peripheral blood mononuclear cells (PBMC) were stored frozen in liquid nitrogen and prior to use, vials of frozen cells (0.5×10^8 PBMCs/vial or 1×10^8 PBMCs/vial) were quick thawed in a 42° C. water bath. Cells were promptly transferred to a 15 mL tube with 5 mL FBS dropwise then, then 6 mL of RF10 was added. Cells were pelleted at 300 g for 10 min at room temperature. Following aspiration, the cells were resuspended in RF10, pooled into a 50 mL tube which was topped up with RF10. PBMC were pelleted again at 300 g for 10 min at room temperature. Following aspiration, the cells were resuspended in PBS(−/−) and counted. CD4+ T cells were then isolated from 4×10^8 PBMCs that were pelleted and resuspended in PBS(−/−) at 1×10^7 cells/40 μL. 10 μL of CD4+ T cell Biotin-Antibody cocktail (Miltenyi Biotec) for every 1×10^7 cells was added and the mix refrigerated for 5 min. 30 μL of PBS(−/−) for every 1×10^7 cells was added, and 20 μL of the CD4+ T cell MicroBeads for every 1×10^7 cells was added and the mix refrigerated for 10 min. Unlabelled CD4+ T cells were then isolated by negative selection using magnetic separation. CD4+ T cells were then counted before being diluted to 4×10^6 cells/500 μL in RF10 for each condition and seeded into a 48 well plate.
Latent HIV was reactivated in the presence of the HIV integrase inhibitor Raltagravir (Ral) to prevent any further rounds of infection. Ral was made to [2 μM] in RF10+IL-2 (2 U/mL), and used to make 1 mL preparation of each drug up at [×2]. 500 μL of the [×2 Ral/IL-2/drug] was then added to the appropriate wells containing cells. Cells were transported to PC3 and incubated for 72 hrs.
Following reactivation, 800 μL of cell supernatant was transferred to labeled 1.5 mL screwcap tubes, pelletted at 800 g for 10 min then transferred to a second set of tubes and frozen for possible use at a later date. 800 μL of PBS(−/−) was added to each well to mix the cells and 50 μL of cells transferred to another set of tubes for live/dead staining and flow cytometry. Cells were pelleted at 400 g for 10 min, the media aspirated and cells resuspended in 100 μL of a [×1] APC-cy7 live/dead stain (Life technologies).

Like-named read-outs stand apart in the source and are kept apart here.

In general, IC50 refers to the concentration that inhibits the measured activity by half. As to `O=C(CCCOc1ccccc1)Nc1ncc(Br)s1` [Compound 7], in the data set with J.Lat10.6 T-cell line, the dose dependent toxicity result is reported as “no such toxicity”. The IC50 in data set [1] (Human immunodeficiency virus 1, J-Lat 10.6, 48 h, read-out: IC50 for reactivation of HIV-1 gene expression) is approximately 4.5 µM. Also, the “percent of the cells treated with reactivated HIV-1 gene expression” value in data set [1] (J.Lat10.6 model, alone at 10 μM and in combination, 48 hrs post treatment) turned out to be 2.4%. Also, the “induction of HIV-1 gene expression, % of the normalized value” was 24% in data set [2] (at 5 μM, normalized between unstimulated baseline and PMA as 100%); 24% in data set [2] (normalized between unstimulated baseline and PMA positive control as 100%, concentration not given).

The values above are taken from patent US20190330167A1, “ACTIVATORS OF HIV LATENCY” (priority 2016, published 2019).
